In US12540150B1, “Fluorogenic probe using a Mislow-Evans rearrangement for real-time imaging of hydrogen peroxide” (University of Pittsburgh—Of the Commonwealth System of …, priority 2020, dated 2026):
Values joined by “and” are separate entries in the source; they are usually repeats but may differ in a detail not shown here. Identical values can stand only once.

Columns and labels:
[1] = Selectivity of 1: reaction with NO3^−; conditions: for Fluorescence: 15 min minus 0 min
Protocol: The probe 1 was then exposed to NO3^− at various concentrations. NaNO3 (30.9 mg) was dissolved in ultrapure water (2.00 mL). This solution was diluted to 10 μM, 100 μM, 1.00 mM, and 10.0 mM. H2O2 was diluted to 10 μM, 100 μM, 1.00 mM, and 10.0 mM. A solution of 100 μM 1 in ethanol (20 μL) was added to 5:95 methanol/50 mM pH 7 potassium phosphate buffer (160 μL). The NaNO3 or H2O2 solutions (20 μL) were added to the solution containing 1 and the fluorescence intensity was measured immediately and again after incubation at 25° C. for 15 min. The fluorescence change over the first 15 min was reported for NO3^− in FIG. 21 and Table 12. The fluorescence values in Table 12 are the fluorescence at 15 min minus the fluorescence at 0 min.

[2] = Selectivity of 1: reaction with ONOO^−; conditions: for Fluorescence Intensity: pH 7, 25° C., 15 min
Protocol: Next, it was tested whether OCl^− and ONOO^− (peroxynitrite), would react with 1. A solution of 0, 1, 10, or 22 μM ONOO— in 0.3 M NaOH (20 μL) or 1, 10, 100, or 1000 μM NaOCl in water (20 μL) was added to the wells of a black 96-well plate. A solution of 10 μM 1 in DMSO (560 μL) and 5:95 MeCN/1.2 M phosphate pH 7 buffer (4.48 mL) was made; this solution (180 μL) was transferred to each of the wells. The samples were allowed to incubate at 25° C. for 15 min before the fluorescence was measured. […] This may be attributed to trace amounts of H2O2 in the ONOO^− solution.

[3] = test system: zebrafish; experiment: Zebrafish tail wound-healing model imaging of H2O2; assay type: in vivo; conditions: three-day post-fertilization zebrafish embryos, 1 mM 1 for 2 h
Text: H2O2 has been recognized as a critical signaling molecule for the recruitment of immune cells for wound regeneration. To date, only genetically encoded protein-based fluorescent probes have been able to illuminate the spatiotemporal dynamics of H2O2 for wound healing models in zebrafish. It was hypothesized that our method might be rapid enough to match the protein-based imaging in vivo. As a platform to test this hypothesis, 1 was applied to image a zebrafish tail wound-healing model.
Three-day post-fertilization zebrafish embryos were removed from their chorion and allowed to swim in 1 mM 1 for 2 h (0.1% v/v DMSO), leading to effective dye loading. Following this, the fish were anesthetized and mounted in agar. The tail fins were clipped with a razor blade.
Fluorescence images were obtained every 60 s for 60 min using an inverted Nikon TiE fluorescent microscope (Nikon Inc., Melville, NY) equipped with a 20× 0.75 NA lens and NIS Elements Software. The sample was excited using the 470 nm line of a Lumencor diode-pumped light engine (SpectraX, Lumencor Inc., Beaverton OR), and the fluorescence signals were detected using an ET-GFP filter set (Chroma Technology Corp) and ORCA-Flash 4.0 sCMOS camera (HAMAMATSU Corporation, Bridgewater, NJ).

[4] = Selectivity of 1: reaction with O2^·−; conditions: for Fluorescence Intensity: 15 min
Protocol: (§1) Following the concentration dependence studies, the selectivity of 1 was assessed against O2^·−, ^1O2, ·OH, ClO^−, ONOO^−, 'BuOOH, NO3^−, NO2, and NO·. […] The production of some of these ROS required H2O2 as a reagent or generated H2O2 as a product, for which we carefully performed control experiments as detailed below. For example, a solution of 100 μM 1 in ethanol (20 μL) was added to 5:95 methanol/50 mM phosphate pH 7 buffer (140 μL). […] A control containing 100 μM 1 in ethanol (20 μL), 5:95 methanol/50 mM phosphate pH 7 buffer (160 μL), and 700 mM H2O2 (20 μL) was also generated. The solutions were allowed to incubate at 25° C. for 15 min prior to measuring fluorescence. […] Therefore, 1 is selective for H2O2 over O2^·−.

[5] = Stability of 1 under ambient conditions by 1H NMR; assay type: physicochemical; conditions: room temperature, in air
Text: Since organic selenides are prone to oxidation in air, the stability of 1 under ambient conditions was investigated. To study the stability of 1, the ^1H NMR spectra of 1 in DMSO-d6 were obtained at specified intervals (days 1, 7, 14, 21, 30 and 60). The solution was left at room temperature and in air throughout the entire period.
[drawing 26] were observed. […] Even so, the compound was quite resistant to oxidative decomposition up to 60 days as manifested by the presence of only less than 10% acrolein.

[6] = Selectivity of 1 against various ROS and RNS (FIG. 14B); conditions: O2^·−, ^1O2, ·OH, ClO^−, ONOO^−, tBuOOH, NO3^−, NO2, NO·
Protocol: as §1

[7] = Selectivity of 1: reaction with NO·; conditions: 15 min minus 0 min

## Oc1ccc2c(c1)Oc1cc(O/C=C/C[Se]c3ccccc3)ccc1[C@@]21OCc2ccccc21 [Compound 1, (S,E)-6′-((3-(Phenylselanyl)prop-1-en-1-yl)oxy)-3H-spiro[isobenzofuran-1,9′-xanthen]-3′-ol]
[1]
  reaction with NO3^−: did not react
[1]; 0 μM NO3^− or H2O2, pH 7, 25° C.
  Fluorescence: 24,359 and 26,870 and 26,226
[1]; 0.1 μM H2O2
  Fluorescence: 58,172 and 52,104 and 52,249
[1]; 0.1 μM NO3^−
  Fluorescence: 34,507 and 35,439 and 40,487
[1]; 1 μM H2O2
  Fluorescence: 266,770 and 242,313 and 222,834
[1]; 1 μM NO3^−
  Fluorescence: 43,966 and 35,385 and 47,433
[2]
  fluorescence change with increasing ONOO^− concentration: slight increase in fluorescence intensity
[2]; 100 nM ONOO^−
  Fluorescence Intensity: 23,606 and 21,961 and 20,229
[2]; 1.0 μM ONOO^−
  Fluorescence Intensity: 46,271 and 39,358 and 35,209
[2]; 2.2 μM ONOO^−−
  Fluorescence Intensity: 63,954 and 56,351 and 61,987
[3]
  time of maximum fluorescence after tail snipping: 10 to 20 min
[4]
  reaction with O2^·−: did not react
[4]; KO2 + 10 U/mL catalase, pH 7, 25° C.
  Fluorescence Intensity: 104,768 and 72,151 and 98,514
[4]; KO2 + 10^4 U/mL catalase, pH 7, 25° C.
  Fluorescence Intensity: 63,553 and 41,950 and 67,009
[4]; KO2, phosphate pH 7, 25° C.
  Fluorescence Intensity: 106,099 and 92,938 and 99,300
[5]; DMSO-d6 solution, read-out: half-life of cis-trans isomerization of the enol ether (converted)
  half-life: 60 days
[5]; [D6]DMSO, up to 60 days
  acrolein present (oxidative decomposition): less than 10%
[6]
  reaction with other ROS and RNS relative to H2O2: little reaction was observed
[7]; 0.1 μM H2O2
  Fluorescence: 9,370 and 9,525 and 9,517
[7]; 1 μM H2O2
  Fluorescence: 26,155 and 26,618 and 27,176
[7]; 10 μM H2O2
  Fluorescence: 111,008 and 106,765 and 111,053
